In article PMC10762035, “Molecular basis of human trace amine-associated receptor 1 activation” (Nature Communications, 2024):
Residue numbers refer to the chain shown, from its start. Where “and” joins values, the source holds several entries; their conditions need not be identical. Equal entries are not always repeated.

Legend:
Assay type in all cases: cell-based
hTA1 S107C = target: T1, hTA1 S107C (Homo sapiens, UniProt Q96RJ0, S107C); assay: GloSensor cAMP accumulation assay, S107C mutant;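 also: cells transiently co-expressing receptor and GloSensor biosensor, luminescence read after 30 min agonist exposure at room temperature, concentration-response fitted by nonlinear regression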
T1 construct: expressed in transfected cells; host or cells: HEK293T
T1 sequence (Q96RJ0 1-339 S107C): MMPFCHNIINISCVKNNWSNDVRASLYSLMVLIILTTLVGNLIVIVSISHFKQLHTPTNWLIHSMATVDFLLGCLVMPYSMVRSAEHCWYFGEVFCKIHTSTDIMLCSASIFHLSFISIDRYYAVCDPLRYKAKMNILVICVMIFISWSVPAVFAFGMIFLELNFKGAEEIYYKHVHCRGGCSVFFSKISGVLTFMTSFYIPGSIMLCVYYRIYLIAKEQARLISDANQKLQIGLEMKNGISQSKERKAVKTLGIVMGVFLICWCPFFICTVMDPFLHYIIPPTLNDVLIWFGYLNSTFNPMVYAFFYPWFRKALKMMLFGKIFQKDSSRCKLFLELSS

hTA1 C5S = target: T2, hTA1 C5S (Homo sapiens, UniProt Q96RJ0, C5S); assay: GloSensor cAMP accumulation assay, C5S mutant; conditions: for C5S - Normalized Luminescence Counts (N=2): log[Compound], single wells
T2 construct: expressed in transfected cells; host or cells: HEK293T
T2 sequence (Q96RJ0 1-339 C5S): T1 sequence (Q96RJ0 1-339 S107C) with C5S, C107S

hTA1 C13S = target: T3, hTA1 C13S (Homo sapiens, UniProt Q96RJ0, C13S); assay: GloSensor cAMP accumulation assay, C13S mutant; conditions: for C13S - Normalized Luminescence Counts (N=2): log[Compound], single wells
T3 construct: expressed in transfected cells; host or cells: HEK293T
T3 sequence (Q96RJ0 1-339 C13S): T1 sequence (Q96RJ0 1-339 S107C) with C13S, C107S

hTA1 I290N = target: T4, hTA1 I290N (Homo sapiens, UniProt Q96RJ0, I290N); assay: GloSensor cAMP accumulation assay, I290N mutant;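 also: cells transiently co-expressing hTA1 and the GloSensor cAMP biosensor, luminescence read 30 min after compound addition at room temperature, efficacy scaled to the maximal β-PEA response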
T4 construct: expressed in transfected cells; host or cells: HEK293T
T4 sequence (Q96RJ0 1-339 I290N): T1 sequence (Q96RJ0 1-339 S107C) with C107S, I290N

## NCCc1ccc(Oc2ccc(O)cc2)c(I)c1 [T1AM, 3-iodothyronamine]
hTA1 S107C; S107C mutant minus WT average
  ΔEmax values (each mutant value - WT average): 9.303
hTA1 S107C; S107C mutant, β-PEA = 100, each line an independent experiment, 3 replicates
  Emax values, Mean: 79.7491 and 64.3505
hTA1 S107C; S107C, n=2
  Span ± SEM (Emax normalized to β-PEA): 72.05 ± 7.70
  pEC50 ± SEM: 5.87 ± 0.53
hTA1 S107C; S107C, n=2, read-out: EC50
  EC50: 1350 nM
hTA1 C5S; C5S, n=2
  Span ± SEM (Emax normalized to β-PEA): 81.19 ± 8.03
  pEC50 ± SEM: 5.95 ± 0.04
hTA1 C5S; C5S, n=2, read-out: EC50
  EC50: 1110 nM
hTA1 C5S; hTA1 C5S, mean of 3 replicates, one line per independent experiment
  pEC50 values, Mean: 6.184 and 5.721
hTA1 C5S; hTA1 C5S, β-PEA = 100, mean of 3 replicates, one line per independent experiment
  Emax values, Mean: 73.1551 and 89.2227
hTA1 C5S; M = -5
  C5S - Normalized Luminescence Counts (N=2): 66.8501 and 72.156 and 68.5661 and 75.0127 and 63.7584 and 82.7458
hTA1 C5S; M = -5.522
  C5S - Normalized Luminescence Counts (N=2): 58.0446 and 60.9798 and 52.4226 and 59.2704 and 49.2589 and 55.9562
hTA1 C13S; C13S
  ΔpEC50 values (each mutant value - WT average): -0.156 and -0.1145
hTA1 C13S; C13S, Mean of fit per experiment
  Emax values: 53.0882 and 64.9586
hTA1 C13S; C13S, n=2
  Span ± SEM (Emax normalized to β-PEA): 59.02 ± 5.94
  pEC50 ± SEM: 5.99 ± 0.05
hTA1 C13S; C13S, n=2, read-out: EC50
  EC50: 1010 nM
hTA1 C13S; hTA1 C13S, mean of 3 replicates, one line per independent experiment
  pEC50 values, Mean: 5.973 and 6.015
hTA1 C13S; M = -5
  C13S - Normalized Luminescence Counts (N=2): 54.3554 and 36.9604 and 53.1374 and 65.6185 and 52.4268 and 54.7653
hTA1 C13S; M = -5.522
  C13S - Normalized Luminescence Counts (N=2): 42.3654 and 30.6418 and 38.8635 and 53.123 and 40.9666 and 58.8174
hTA1 C13S; M = -6
  C13S - Normalized Luminescence Counts (N=2): 26.7212 and 21.3162 and 26.3787 and 35.2187 and 26.4539 and 31.7735
hTA1 C13S; M = -6.522
  C13S - Normalized Luminescence Counts (N=2): 13.0564 and 10.1636 and 13.437 and 17.4036 and 12.4411 and 15.1722
hTA1 I290N; I290N
  increase in potency vs wild type: about 5 fold
hTA1 I290N; I290N, n=2
  Span ± SEM (Emax normalized to β-PEA): 76.97 ± 5.53
  pEC50 ± SEM: 6.86 ± 0.07
hTA1 I290N; I290N, n=2, read-out: EC50
  EC50: 139 nM
hTA1 I290N; hTA1 I290N (N=2), log[Compound], M = -5
  cAMP accumulation response, single replicate values (source data, Supplementary Figure 5): 86.8237 and 86.3523 and 77.8671 and 98.8421
hTA1 I290N; hTA1 I290N mutant minus WT average
  ΔpEC50 values (each mutant value - WT average), Mean: 0.6614 and 0.7922
hTA1 I290N; hTA1 I290N mutant, Figure 3B source data, each grid row a separate experiment, 3 replicates
  pEC50 values, Mean: 6.791 and 6.921
hTA1 I290N; hTA1 I290N mutant, β-PEA set to 100, each grid row a separate experiment, 3 replicates
  Emax values, Mean: 82.4992 and 71.4451
